Key:
[1] = cited from earlier work
STEP = target: T1, STEP (Mus musculus, UniProt P54830); assay: Dialysis of TC-2153-inhibited STEP; assay type: biochemical; settings: after 24 h of dialysis
T1 sequence (P54830 1-541): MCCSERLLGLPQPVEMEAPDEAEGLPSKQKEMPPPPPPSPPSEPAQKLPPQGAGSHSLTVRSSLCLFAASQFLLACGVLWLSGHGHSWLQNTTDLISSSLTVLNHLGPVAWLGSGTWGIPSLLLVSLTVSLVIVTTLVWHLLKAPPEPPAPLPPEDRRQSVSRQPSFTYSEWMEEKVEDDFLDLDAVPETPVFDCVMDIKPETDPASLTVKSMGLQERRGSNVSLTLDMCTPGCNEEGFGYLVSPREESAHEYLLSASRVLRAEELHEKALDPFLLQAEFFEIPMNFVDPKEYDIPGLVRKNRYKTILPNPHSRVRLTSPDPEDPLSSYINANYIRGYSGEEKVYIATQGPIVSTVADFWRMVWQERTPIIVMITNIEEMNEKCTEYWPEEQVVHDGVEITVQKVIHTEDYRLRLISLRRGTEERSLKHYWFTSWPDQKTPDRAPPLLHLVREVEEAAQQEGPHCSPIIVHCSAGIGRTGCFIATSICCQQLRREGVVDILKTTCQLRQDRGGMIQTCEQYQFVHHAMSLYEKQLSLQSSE
Protocol: The samples were shaken at room temperature for 1 h to inhibit STEP. Each sample was then transferred to a separate Thermo Scientific Slide-A-Lyzer dialysis cassette with a 10,000 MW cutoff and 0.5–3.0 mL sample volume and was dialyzed into 1 L of 1× assay buffer over 24 h in a 4°C cold room. Aliquots of approximately 100 µL were removed from the dialysis cassette at 0, 4, and 24 h time points. Protein concentration was determined by reading absorbance at 280 nm compared to a standard curve for STEP. The samples were diluted to 100 nM in 100 µL of 1× assay buffer. […] The initial rate data collected were used to determine enzyme activity standardized to the DMSO control zero time point.

[2] = tested on: ERK1/2 (Y204/187) and Pyk2 (Y402); assay: Tyr phosphorylation of ERK1/2 and Pyk2 in different organs of WT and STEP KO mice; assay type: in vivo, mouse
3xTg-AD and WT mice = assay: Novel object recognition (NOR) task; assay type: in vivo, mouse; settings: 10 mg/kg i.p.
Protocol: Mice were first habituated to the task by allowing them to explore an empty white open field box (60 cm×60 cm) for 5 min. […] After the elapsed time, the mice completed the sample phase in which they were placed into the open field box with two identical objects located in the right and left corners. Mice were allowed to freely explore until they had accumulated a total of 30 s of object exploration (i.e., contact with the object with the nose and/or front paws), at which point the trial ended. The time spent with each object was recorded. Mice that were unable to complete the 30 s exploration within 20 min during the sample phase were excluded from the study (WT = 1 and AD = 3). Twenty-four hours later, mice completed the choice phase that was conducted in an identical manner to the sample phase except that one of the objects was substituted by a novel object and trial duration was set at 5 min. No drug treatments were given during the choice phase. Fifteen WT mice from the initial cohort were used to optimize the novel object conditions (to identify object pairings of inherent equal interest). Location of the novel object (left or right side) was counterbalanced to minimize possible bias. […] The DI was calculated for each subject by using the following formula: DI = (time spent exploring novel object – time spent exploring familiar object)/(total time spent exploring both objects). […]

PTP-SL = PTP-SL (Homo sapiens, UniProt Q15256); assay: biochemical
Chain of PTP-SL (Q15256 22-657): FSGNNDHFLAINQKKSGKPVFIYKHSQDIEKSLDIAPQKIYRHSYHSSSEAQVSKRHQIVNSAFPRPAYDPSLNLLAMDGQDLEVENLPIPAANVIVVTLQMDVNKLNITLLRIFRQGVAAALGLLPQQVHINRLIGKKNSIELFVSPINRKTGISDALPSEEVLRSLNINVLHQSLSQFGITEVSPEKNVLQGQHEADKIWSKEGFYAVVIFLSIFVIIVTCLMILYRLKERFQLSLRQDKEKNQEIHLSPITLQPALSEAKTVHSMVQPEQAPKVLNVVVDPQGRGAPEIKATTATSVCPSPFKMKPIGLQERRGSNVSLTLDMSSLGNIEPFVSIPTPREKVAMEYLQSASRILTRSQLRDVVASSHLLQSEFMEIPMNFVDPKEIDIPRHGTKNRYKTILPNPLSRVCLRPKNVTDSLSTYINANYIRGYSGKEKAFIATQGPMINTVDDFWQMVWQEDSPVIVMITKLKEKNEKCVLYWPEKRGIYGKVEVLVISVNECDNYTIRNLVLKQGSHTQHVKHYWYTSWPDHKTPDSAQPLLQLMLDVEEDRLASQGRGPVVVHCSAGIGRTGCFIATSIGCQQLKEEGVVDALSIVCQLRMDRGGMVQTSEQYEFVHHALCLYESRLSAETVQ
Protocol: Full-length HePTP and PTP-SL proteins were purchased from Abnova (Taipei, Taiwan). All proteins were dialyzed in 1,000-fold volume of buffer, which was repeated three times. […] After 10 min preincubation of enzyme and inhibitor at 27°C, 500 µM of pNPP was added and incubated for 30 min. Absorbance was taken at 405 nm using a Biotek plate reader.

Cl.Nc1cc(C(F)(F)F)cc2c1SSSSS2 [TC-2153, 8-(trifluoromethyl)-1,2,3,4,5-benzopentathiepin-6-amine hydrochloride]
Solubility in aqueous solution [1]: reasonable solubility in aqueous solution | STEP activity after dialysis (reversibility) (STEP): STEP remained inhibited | pERK1/2 and pPyk2 in hippocampus and frontal cortex of STEP KO mice ([2]; STEP KO mice): did not increase the Tyr phosphorylation of these substrates over baseline levels | pERK1/2 and pPyk2 in frontal cortex and hippocampus ([2]; WT mice, 10 mg/kg i.p., 3 h): significant increase in pERK1/2 and pPyk2 | pERK1/2 and pPyk2 in cerebellum, spleen, kidney, pancreas (tissues without STEP) ([2]; mice, 10 mg/kg i.p., 3 h): not in the cerebellum or in all tissues tested outside the brain | NOR memory in 12-mo-old AD mice (3xTg-AD and WT mice; 12-mo-old 3xTg-AD mice, familiar versus novel p<0.05): significant improvement of memory | NOR cognitive function in 12-mo-old WT mice (3xTg-AD and WT mice; WT mice, 12 mo cohort): did not affect cognitive function | IC50 (PTP-SL): 220.6 ± 1.3 nM
